These results are taken from publication PMC3438169 (PLoS ONE, 2012).

Structures are written as SMILES. *1 amine or outer side, *2 acyl side, *3 side chain or, on linkers, in order; H or OH if unused. Where a SMILES comes first, the peptide text is derived from it. [ ]: non-standard residue; d: D form. dAla(ψthiazole) = C[C@@H](N[*:1])c1nc(C(=O)[*:2])cs1; Trp(4-OMe) = COc1cccc2[nH]cc(C[C@H](N)C(=O)O)c12; dAbu = CC[C@@H](N)C(=O)O; Dha = C=C(N)C(=O)O; Sar = CNCC(=O)O

One test concerns P. aeruginosa. Description: Resistant mutant selection, P. aeruginosa. Type of test: cell-based. As to conditions: P. aeruginosa K767; solid medium containing 128 µg/ml argyrin B. The method, then: Resistance frequencies were calculated as the number of CFU (mutants) on drug containing plates divided by the number of CFU plated. Whole genome sequencing was done as described previously. The fusA1 gene from P. aeruginosa was generated for sequencing in two parts, using primer pairs PAEFF1/PAEFR1: […]/[…] and EFF2/EFR1: […]/[…]. The fusA1 gene from B. multivorans was generated as a single band using BCEFGF1/BCEFGR1: […]/[…]. Nucleotide sequencing of the products was done by Agencourt (Beverly MA).

Test [1] concerns BYΔ8 strain with MEF1 mutations. Description: Yeast susceptibility determination, MEF1 mutants in BYΔ8 background. In kind it is cell-based, S. cerevisiae. As to conditions: Figure 2D: all argyrin B concentrations in the range tested. How it is done:
Yeast strains used in this study are BY4741 [32] and strain BYΔ8, derived from BY4741 but deleted for eight genes involved in drug resistance (efflux pumps: snq2, pdr5, yor1; transcription factors: pdr1, pdr2, pdr3, yap1, yrm1). […] Starting OD600 was 0.1, total volume per well 120 µl. Plates were incubated at 30°C with 770 RPM orbital shaking.
Strain BYΔ8 was incubated in 2.5% ethylmethanesulfonate until only 50% of the cells formed colonies. […] Amplifying the mutated MEF1 gene and transforming it into non-mutagenized BYΔ8 cells validated identified mutations in MEF1.

Test [2] has as its system cytochrome c oxidase subunit 2 (COX2). The experiment in a line: Immunoblot of mitochondrial-encoded COX2 in HCT116 and RKO cells. Type of test: cell-based, human. As to conditions: 4 days. The method, then: Whole cell lysates were prepared using RIPA buffer (Cell Signaling Technology) supplemented with EDTA-free protease inhibitor cocktail (Roche Applied Science), cleared by centrifugation at 16,000× g for 10 min, normalized based on protein concentration (Bio-Rad protein assay), boiled in NuPAGE LDS sample buffer (Invitrogen) supplemented with 2% ß-mercaptoethanol, and separated on NuPAGE 4–12% Bis-Tris gels using MOPS running buffer (Invitrogen). Proteins were transferred to nitrocellulose membranes and probed with the following primary antibodies: rabbit polyclonal antibody against mEF-G1 (Sigma, HPA034765), rabbit monoclonal antibody against GAPDH (Cell Signaling Technology, 14C10), mouse monoclonal antibodies against COX2 (Invitrogen, A6404) or SDHA (MitoSciences, MS204). Immobilized primary antibodies were visualized using HRP-conjugated anti-rabbit or anti-mouse IgG (Millipore, AP307P and AP308P) and enhanced chemiluminescence (Pierce).
For orientation: A western blot detects proteins with antibodies after separation by electrophoresis.

A further test relates to RKO. Description: Cell viability (CellTiter-Glo), RKO with siRNA or mEF-G1 variants. In kind it is cell-based, human. How it is done: HCT116 (ATCC, CCL-247) and RKO (ATCC, CRL-2577) cell lines were maintained in a humidified incubator at 37°C and 5% CO2 in RPMI1640 supplemented with 10% FBS. Cell viability was determined using the CellTiter-Glo luminescent cell viability assay (Promega). […] Subsequently, 40 µl of CellTiter-Glo reagent was added to each well and luminescence recorded on an Envision plate reader (Perkin Elmer). Each treatment condition was tested in triplicate and compared to an equivalent volume of DMSO as control.
Non-targeting (NT) or GFM1 siRNA pools were obtained from Dharmacon (ON-TARGETplus SMART pool D-001810 and L-013685). HCT116 and RKO cells were reverse transfected in 6-well plates using RNAiMax (Invitrogen) and 25 nM siRNA. After 2 days, cells were harvested by trypsinization and re-plated into 6-well plates for western blot analysis or into 384-well plates for compound treatments and cell viability determination using CellTiter-Glo as described above.
The human GFM1 cDNA (encoding mEF-G1, Table 2) was mutagenized in pENTR221 (Invitrogen) using QuikChangeII XL site-directed mutagenesis (Stratagene). The following point mutations were introduced: C1355T (encoding S452L), C1481T (encoding S494F) and T2078A (encoding L693Q). The GFM1 cDNAs were then subcloned into the mammalian expression vector pLenti4/TO/V5 using LR clonase II (Invitrogen) and sequence-verified. The pLenti4 constructs were then co-transfected with a lentiviral plasmid mix (encoding LP1, LP2 and VSV-G) into 293T cells, and viral particles were harvested after 72 h and used to infect HCT116 and RKO cells. Stable cell lines were generated by selection with 400 µg/ml Zeocin and plated into 6-well plates for western blot analysis or into 384-well plates for compound treatments and cell viability determination using CellTiter-Glo as described above.
(In ATP-based viability assays light output follows the ATP content of the culture.)

The test system of test [3] is recombinant human mEF-G1 WT. Description: Biacore binding, human mEF-G1 WT. The note with it: 10, 20, 40 µM, HBS-P+ pH 7.4, 4% DMSO. An excerpt: GFM1 encoding the active site of EF-G1 (residues 36–751) was PCR amplified from pDONR221 constructs using primers (GGGGACAAGTTTGTACAAAAAAGCAGGCTTAATGTCTTCATCAGGGGTGATT, GGGGACCACTTTGTACAAGAAAGCTGGGTATTAGTTCTTGGCTTTTCC). P. aeroginosa fusA1 encoding full-length EF-G was PCR amplified from pET28a-PaEFG-Nhis using primers (GGGGACCACTTTGTACAAGAAAGCTGGGTATTATCAACCTTGTTTTTT, GGGGACAAGTTTGTACAAAAAAGCAGGCTTAATGGCCCGTACTACACCC). Purified PCR products were cloned into the pDONR221 vector using Gateway cloning and BP Clonase II (Invitrogen), shuttled into an E.coli protein expression vector for N-terminal tagging (Avitag-His6 vector) using LR Clonase II (Invitrogen), and verified by sequencing. Avitag-His6-hEF-G1 and Avitag-His6-PaEF-G constructs were transformed into BL21-AI cells (Invitrogen) and isolated single colonies were used to inoculate 5 ml cultures which were grown overnight at 37°C with shaking. […]. Briefly, protein was captured on column using binding buffer (50 mM Tris; pH 7.5, 300 mM NaCl, 20 mM imidazole, 10% glycerol), washed extensively with washing buffer (50 mM Tris; pH 7.5, 500 mM NaCl, 30 mM imidazole, 10% glycerol), and then eluted with elution buffer (50 mM Tris; pH 7.5, 500 mM NaCl, 250 mM imidazole, 10% glycerol). […]

For the molecule `C=C1NC(=O)CN(C)C(=O)CNC(=O)[C@H](Cc2c[nH]c3cccc(OC)c23)NC(=O)[C@H](Cc2c[nH]c3ccccc23)NC(=O)c2csc(n2)[C@@H](C)NC(=O)[C@@H](CC)NC1=O` [argyrin B] (cyclo([dAbu][dAla(ψthiazole)]W[Trp(4-OMe)]G[Sar][Dha])), the “frequency of mutants with decreased susceptibility” value in the test on P. aeruginosa is “circa 5×10^−8”. For the same molecule, in test [1], the “Inhibition of the wild-type (MEF1wt) strain (in words)” value is reported as “full inhibiton of the wild-type strain”. The “COX2 protein level (in words)” value was “depleted” in test [2] (HCT116, 1 µM argyrin B) and “depleted” in test [2] (RKO, 1 µM argyrin B). Besides, the “Lowering of IC50 by knock down of mEF-G1” value with RKO (GFM1 siRNA, 7 days, CellTiter Glo) is given as around 3.3 fold. In the test with RKO (hypoxia, data not shown), the “Sensitivity under hypoxic culture conditions (in words)” value is given as “became less sensitive”. For the same molecule, in the test with RKO (mEF-G1 L693Q, 7 days), the “Decrease of susceptibility on expression of mEF-G1 L693Q” value stood at 7 fold. Also, in the test on RKO (mEF-G1 S452L and S494F, 7 days), the “Sensitivity change on expression of mEF-G1 S452L and S494F (in words)” value is reported as “only marginal effects”. In addition, the “Sensitivity change on overexpression of mEF-G1 WT (in words)” value in the test on RKO (mEF-G1 WT stable overexpression, 7 days) is “did not alter the argyrin B-sensitivity”. The “Binding to human mEF-G1 (in words)” value in test [3] is given as “still bound”.
